{"source": "ChEMBL document CHEMBL1201862", "about": "“PubChem BioAssay data set” (2004)", "key": {"[1]": {"experiment": "Vero E6 cell cytotoxicity, dose response, cytotoxicity control for non-replicating M. tuberculosis project, secondary assay (AID 492998)", "assay_type": "functional, VeroE6", "details": "Vero C1008"}, "[2]": {"experiment": "DRD fibroblast viability loss – cell-based, non-viral oncogenic, luminescence, dose response (AID 1934)", "assay_type": "functional", "details": "Homo sapiens"}, "[3]": {"experiment": "cells", "assay_type": "functional"}, "[4]": {"test_system": "BJ", "experiment": "cells", "assay_type": "functional, cell-based", "details": "Homo sapiens"}, "[5]": {"experiment": "THP-1 cell cytotoxicity, dose response, cytotoxicity control for non-replicating M. tuberculosis project (AID 489025)", "assay_type": "functional"}, "[6]": {"test_system": "BJ", "experiment": "BJ-TERT fibroblast viability loss – cell-based, RAS-independent, luminescence, dose response (AID 1933)", "assay_type": "functional", "details": "Homo sapiens"}, "[7]": {"test_system": "BJ", "experiment": "BJ-TERT-LT-ST fibroblast viability loss – cell-based, RAS-independent, luminescence, dose response (AID 1935);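 note: BJ fibroblasts immortalized with TERT plus LT and ST oncogenes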", "assay_type": "functional", "details": "Homo sapiens"}, "[8]": {"biological_target": "Ion channel NompC (Danio rerio, UniProt Q7T1G6)", "sequence (Q7T1G6 whole entry)": "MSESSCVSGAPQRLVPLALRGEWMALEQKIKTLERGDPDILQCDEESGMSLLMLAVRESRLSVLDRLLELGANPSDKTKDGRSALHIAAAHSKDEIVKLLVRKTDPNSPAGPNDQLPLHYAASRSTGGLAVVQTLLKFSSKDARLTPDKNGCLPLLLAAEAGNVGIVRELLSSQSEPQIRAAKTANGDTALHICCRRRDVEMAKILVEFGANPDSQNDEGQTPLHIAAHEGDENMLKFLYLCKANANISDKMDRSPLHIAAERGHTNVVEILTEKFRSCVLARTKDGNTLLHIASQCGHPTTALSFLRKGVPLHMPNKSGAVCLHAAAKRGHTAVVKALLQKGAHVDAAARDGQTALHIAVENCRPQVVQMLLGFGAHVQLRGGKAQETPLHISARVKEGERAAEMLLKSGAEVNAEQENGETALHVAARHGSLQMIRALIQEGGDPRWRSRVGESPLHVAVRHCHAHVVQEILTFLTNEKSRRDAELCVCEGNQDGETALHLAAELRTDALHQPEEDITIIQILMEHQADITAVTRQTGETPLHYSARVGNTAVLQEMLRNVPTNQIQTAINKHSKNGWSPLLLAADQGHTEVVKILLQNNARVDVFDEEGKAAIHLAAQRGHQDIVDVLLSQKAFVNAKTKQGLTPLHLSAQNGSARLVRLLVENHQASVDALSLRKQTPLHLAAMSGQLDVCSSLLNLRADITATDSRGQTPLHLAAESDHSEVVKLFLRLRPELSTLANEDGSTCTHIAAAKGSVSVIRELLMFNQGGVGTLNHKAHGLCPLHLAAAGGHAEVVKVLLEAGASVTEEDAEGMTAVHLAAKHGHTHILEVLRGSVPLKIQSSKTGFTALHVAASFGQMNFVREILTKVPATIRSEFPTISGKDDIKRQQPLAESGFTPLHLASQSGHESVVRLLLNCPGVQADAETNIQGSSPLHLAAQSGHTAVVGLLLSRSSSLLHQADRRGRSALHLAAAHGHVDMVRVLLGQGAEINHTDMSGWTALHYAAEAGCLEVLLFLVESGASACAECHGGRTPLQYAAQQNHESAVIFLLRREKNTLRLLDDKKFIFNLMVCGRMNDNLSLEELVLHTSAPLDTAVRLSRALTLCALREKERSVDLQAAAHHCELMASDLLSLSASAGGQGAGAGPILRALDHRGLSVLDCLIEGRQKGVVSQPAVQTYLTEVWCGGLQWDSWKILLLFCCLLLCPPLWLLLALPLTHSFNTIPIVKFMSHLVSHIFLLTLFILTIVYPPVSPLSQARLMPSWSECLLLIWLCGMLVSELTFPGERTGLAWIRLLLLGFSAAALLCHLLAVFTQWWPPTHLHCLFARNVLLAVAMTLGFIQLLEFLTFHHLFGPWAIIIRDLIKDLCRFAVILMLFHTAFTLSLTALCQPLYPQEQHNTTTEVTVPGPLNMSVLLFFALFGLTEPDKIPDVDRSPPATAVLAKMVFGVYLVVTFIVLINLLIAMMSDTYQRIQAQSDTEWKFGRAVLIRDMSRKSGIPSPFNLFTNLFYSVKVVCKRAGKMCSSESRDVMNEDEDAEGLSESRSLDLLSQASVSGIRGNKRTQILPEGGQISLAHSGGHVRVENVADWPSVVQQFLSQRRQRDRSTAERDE", "experiment": "Dose response cell-based high-throughput screening assay for agonists of the transient receptor potential channel N1 (TRPN1). [Related pubchem assays (depositor defined):AID1424, AID1448]", "assay_type": "functional"}, "[9]": {"biological_target": "Mucolipin-3 (Homo sapiens, UniProt Q8TDD5)", "sequence (Q8TDD5 whole entry)": "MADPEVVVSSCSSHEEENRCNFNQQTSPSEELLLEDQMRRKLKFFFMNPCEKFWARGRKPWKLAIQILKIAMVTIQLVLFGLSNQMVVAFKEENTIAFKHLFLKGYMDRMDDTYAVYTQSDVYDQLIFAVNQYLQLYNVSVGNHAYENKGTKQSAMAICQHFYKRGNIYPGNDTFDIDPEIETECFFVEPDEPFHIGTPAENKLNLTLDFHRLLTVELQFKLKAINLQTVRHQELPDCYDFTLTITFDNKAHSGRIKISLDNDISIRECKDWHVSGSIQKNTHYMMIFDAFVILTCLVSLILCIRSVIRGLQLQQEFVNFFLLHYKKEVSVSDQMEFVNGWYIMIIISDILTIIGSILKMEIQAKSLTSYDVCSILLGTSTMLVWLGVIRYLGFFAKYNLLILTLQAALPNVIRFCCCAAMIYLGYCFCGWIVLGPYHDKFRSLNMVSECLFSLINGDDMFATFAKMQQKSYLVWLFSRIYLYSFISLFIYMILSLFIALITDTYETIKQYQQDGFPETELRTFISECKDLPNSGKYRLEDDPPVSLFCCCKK", "experiment": "Fluorescence counterscreen assay for […] agonists: dose response cell-based high-throughput screening assay to identify agonists of the transient receptor potential channel ML3 (TRPML3). [Related pubchem assays: 1424, 1448 ]", "assay_type": "functional"}, "[10]": {"biological_target": "Likely tRNA 2'-phosphotransferase (Candida albicans (strain SC5314 / ATCC MYA-2876) (Yeast), UniProt Q5A7N4)", "sequence (Q5A7N4 whole entry)": "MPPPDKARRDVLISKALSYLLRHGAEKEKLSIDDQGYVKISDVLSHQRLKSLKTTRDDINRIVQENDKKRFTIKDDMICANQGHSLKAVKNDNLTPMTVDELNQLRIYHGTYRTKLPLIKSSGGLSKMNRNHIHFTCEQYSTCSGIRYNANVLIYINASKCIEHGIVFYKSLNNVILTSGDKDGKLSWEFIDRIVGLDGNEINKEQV", "experiment": "inhibition of Candida TPT1 enzyme activity – biochemical, fluorescence polarization, dose response (AID 2160)"}, "[11]": {"biological_target": "Guanyl-specific ribonuclease T1 (Aspergillus oryzae (strain ATCC 42149 / RIB 40), UniProt P00651)", "sequence (P00651 whole entry)": "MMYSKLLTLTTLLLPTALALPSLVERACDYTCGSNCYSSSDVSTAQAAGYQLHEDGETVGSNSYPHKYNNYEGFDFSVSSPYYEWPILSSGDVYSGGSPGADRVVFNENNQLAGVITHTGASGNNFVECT", "experiment": "inhibition of ribonuclease T1 activity – biochemical, fluorescence polarization, 1536-well, counter-screen for TPT1 inhibitor project, dose response (AID 2167)"}, "[12]": {"biological_target": "T1, Endoribonuclease toxin MazF (Escherichia coli K-12, UniProt P0AE70)", "T1 sequence (P0AE70 whole entry)": "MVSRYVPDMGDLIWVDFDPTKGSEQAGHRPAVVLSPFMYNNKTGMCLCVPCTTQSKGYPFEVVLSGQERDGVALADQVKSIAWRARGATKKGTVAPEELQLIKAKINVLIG", "experiment": "activation of MazEF endoribonuclease cleavage – biochemical, fluorescence, single-stranded RNA substrate, uHTS hits, dose response (AID 588481)", "assay_type": "functional"}, "[13]": {"biological_target": "T1, Endoribonuclease toxin MazF", "experiment": "substrate-only fluorescence increase artefacts – biochemical, single-stranded RNase substrate, counter-screen for MazEF activator project, dose response (AID 588502)", "assay_type": "functional"}, "[14]": {"biological_target": "T2, Tyrosine-protein phosphatase non-receptor type 7 (Homo sapiens, UniProt P35236)", "T2 sequence (P35236 whole entry)": "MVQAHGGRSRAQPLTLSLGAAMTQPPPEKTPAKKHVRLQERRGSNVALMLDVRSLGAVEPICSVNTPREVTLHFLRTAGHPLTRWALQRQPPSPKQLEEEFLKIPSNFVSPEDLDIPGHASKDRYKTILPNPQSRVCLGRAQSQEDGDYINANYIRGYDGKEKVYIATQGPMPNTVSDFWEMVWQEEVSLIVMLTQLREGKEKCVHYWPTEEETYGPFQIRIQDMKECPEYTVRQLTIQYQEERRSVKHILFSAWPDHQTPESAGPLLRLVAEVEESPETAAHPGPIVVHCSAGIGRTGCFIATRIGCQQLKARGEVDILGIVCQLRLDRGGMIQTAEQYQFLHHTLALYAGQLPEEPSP", "experiment": "inhibition of hematopoietic tyrosine phosphatase HePTP – biochemical, set 2, SAR follow-up (AID 449736)", "assay_type": "functional"}, "[15]": {"biological_target": "Tyrosine-protein phosphatase non-receptor type 12 (Homo sapiens, UniProt Q05209)", "sequence (Q05209 whole entry)": "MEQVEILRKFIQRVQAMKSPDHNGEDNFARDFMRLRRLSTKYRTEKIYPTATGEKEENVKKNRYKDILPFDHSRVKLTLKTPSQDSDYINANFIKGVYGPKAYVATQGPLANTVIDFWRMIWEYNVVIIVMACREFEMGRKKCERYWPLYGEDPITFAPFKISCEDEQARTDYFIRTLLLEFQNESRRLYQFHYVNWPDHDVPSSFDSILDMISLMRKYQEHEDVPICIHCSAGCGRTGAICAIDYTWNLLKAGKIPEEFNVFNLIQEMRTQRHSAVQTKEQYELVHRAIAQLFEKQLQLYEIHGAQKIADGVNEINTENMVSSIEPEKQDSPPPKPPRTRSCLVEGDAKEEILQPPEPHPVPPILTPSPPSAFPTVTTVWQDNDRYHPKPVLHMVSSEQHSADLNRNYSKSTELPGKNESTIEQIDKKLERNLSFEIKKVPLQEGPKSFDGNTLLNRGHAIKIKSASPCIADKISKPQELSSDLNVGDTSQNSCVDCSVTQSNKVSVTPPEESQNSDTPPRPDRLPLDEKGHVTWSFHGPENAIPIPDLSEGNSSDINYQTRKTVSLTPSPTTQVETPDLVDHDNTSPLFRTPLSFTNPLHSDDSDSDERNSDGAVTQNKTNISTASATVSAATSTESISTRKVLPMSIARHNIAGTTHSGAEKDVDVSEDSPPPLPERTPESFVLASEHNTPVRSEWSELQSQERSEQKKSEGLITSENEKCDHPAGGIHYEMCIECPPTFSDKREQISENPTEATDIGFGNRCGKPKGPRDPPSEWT", "experiment": "SAR Selectivity Analysis of small molecule inhibitors of PEST using pCAP in a fluorescence assay. [Related pubchem assays (depositor defined):AID1779, AID1784, AID2135]", "assay_type": "functional"}, "[16]": {"biological_target": "T3, Dual specificity protein phosphatase 6 (Rattus norvegicus, UniProt Q64346)", "T3 sequence (Q64346 whole entry)": "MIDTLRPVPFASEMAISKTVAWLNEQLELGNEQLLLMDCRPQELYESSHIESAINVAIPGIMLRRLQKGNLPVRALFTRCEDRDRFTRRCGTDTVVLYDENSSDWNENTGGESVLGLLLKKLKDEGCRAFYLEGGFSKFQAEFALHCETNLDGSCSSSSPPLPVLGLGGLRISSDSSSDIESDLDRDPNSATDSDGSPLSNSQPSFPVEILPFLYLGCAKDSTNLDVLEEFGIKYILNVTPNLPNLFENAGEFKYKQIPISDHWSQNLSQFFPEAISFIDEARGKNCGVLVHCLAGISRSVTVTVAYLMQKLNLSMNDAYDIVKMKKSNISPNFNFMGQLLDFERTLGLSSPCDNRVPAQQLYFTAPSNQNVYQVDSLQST", "assay_type": "functional"}, "[17]": {"biological_target": "T4, Dual specificity protein phosphatase 3 (Homo sapiens, UniProt P51452)", "T4 sequence (P51452 whole entry)": "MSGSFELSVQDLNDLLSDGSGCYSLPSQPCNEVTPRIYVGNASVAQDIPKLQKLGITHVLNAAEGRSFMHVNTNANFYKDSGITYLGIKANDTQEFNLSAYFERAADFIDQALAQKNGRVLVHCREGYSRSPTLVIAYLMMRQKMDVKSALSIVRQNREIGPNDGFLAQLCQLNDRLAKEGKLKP", "experiment": "SAR VHR1 Fluorescent Assay for In Vitro dose response studies Set 2. [Related pubchem assays (depositor defined):AID1654, AID1661, AID1878]", "assay_type": "functional"}, "[18]": {"biological_target": "Tyrosine-protein phosphatase non-receptor type 11 (Homo sapiens, UniProt Q06124)", "sequence (Q06124 whole entry)": "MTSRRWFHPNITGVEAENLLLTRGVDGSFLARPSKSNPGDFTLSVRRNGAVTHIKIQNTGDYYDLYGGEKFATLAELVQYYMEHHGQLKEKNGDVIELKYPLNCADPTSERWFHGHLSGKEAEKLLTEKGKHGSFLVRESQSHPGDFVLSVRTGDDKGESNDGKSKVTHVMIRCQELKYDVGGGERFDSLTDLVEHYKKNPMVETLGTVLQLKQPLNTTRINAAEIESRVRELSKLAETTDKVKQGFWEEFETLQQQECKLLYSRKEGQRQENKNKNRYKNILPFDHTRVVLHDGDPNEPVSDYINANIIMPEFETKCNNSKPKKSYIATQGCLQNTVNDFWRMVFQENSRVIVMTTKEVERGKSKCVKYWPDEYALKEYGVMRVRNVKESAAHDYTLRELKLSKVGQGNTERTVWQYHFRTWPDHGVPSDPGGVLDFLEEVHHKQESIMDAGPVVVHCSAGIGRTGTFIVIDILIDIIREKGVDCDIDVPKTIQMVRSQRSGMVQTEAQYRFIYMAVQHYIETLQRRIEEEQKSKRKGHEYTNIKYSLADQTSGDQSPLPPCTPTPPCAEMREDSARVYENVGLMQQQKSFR", "experiment": "PTPN11 enzyme inhibitors – biochemical, selectivity assay for STEP inhibitor project, dose response (AID 602367)", "assay_type": "functional", "details": "read-out: IC50_Mean"}, "[19]": {"biological_target": "Tyrosine-protein phosphatase non-receptor type 5 (Homo sapiens, UniProt P54829)", "sequence (P54829 whole entry)": "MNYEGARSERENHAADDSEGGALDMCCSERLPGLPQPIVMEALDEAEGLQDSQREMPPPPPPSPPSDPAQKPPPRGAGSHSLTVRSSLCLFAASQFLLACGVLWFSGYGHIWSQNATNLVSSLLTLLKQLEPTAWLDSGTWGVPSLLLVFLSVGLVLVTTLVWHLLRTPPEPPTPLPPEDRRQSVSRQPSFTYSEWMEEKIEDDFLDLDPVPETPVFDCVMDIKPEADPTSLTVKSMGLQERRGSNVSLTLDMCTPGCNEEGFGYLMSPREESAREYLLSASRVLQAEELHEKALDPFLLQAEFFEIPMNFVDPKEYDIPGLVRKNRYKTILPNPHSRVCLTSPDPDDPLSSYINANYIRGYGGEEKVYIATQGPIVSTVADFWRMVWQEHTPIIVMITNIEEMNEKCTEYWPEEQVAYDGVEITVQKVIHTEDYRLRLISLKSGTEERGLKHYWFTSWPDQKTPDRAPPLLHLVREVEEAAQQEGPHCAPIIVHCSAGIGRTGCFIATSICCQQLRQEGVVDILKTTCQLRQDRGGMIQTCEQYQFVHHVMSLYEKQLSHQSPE", "experiment": "PTPN5 enzyme inhibition – biochemical, fluorescence intensity, uHTS hits, confirmation (AID 602372)", "assay_type": "functional", "details": "read-out: IC50_Mean"}, "[20]": {"biological_target": "T5, Tyrosine-protein phosphatase non-receptor type 22 (Homo sapiens, UniProt Q9Y2R2)", "T5 sequence (Q9Y2R2 whole entry)": "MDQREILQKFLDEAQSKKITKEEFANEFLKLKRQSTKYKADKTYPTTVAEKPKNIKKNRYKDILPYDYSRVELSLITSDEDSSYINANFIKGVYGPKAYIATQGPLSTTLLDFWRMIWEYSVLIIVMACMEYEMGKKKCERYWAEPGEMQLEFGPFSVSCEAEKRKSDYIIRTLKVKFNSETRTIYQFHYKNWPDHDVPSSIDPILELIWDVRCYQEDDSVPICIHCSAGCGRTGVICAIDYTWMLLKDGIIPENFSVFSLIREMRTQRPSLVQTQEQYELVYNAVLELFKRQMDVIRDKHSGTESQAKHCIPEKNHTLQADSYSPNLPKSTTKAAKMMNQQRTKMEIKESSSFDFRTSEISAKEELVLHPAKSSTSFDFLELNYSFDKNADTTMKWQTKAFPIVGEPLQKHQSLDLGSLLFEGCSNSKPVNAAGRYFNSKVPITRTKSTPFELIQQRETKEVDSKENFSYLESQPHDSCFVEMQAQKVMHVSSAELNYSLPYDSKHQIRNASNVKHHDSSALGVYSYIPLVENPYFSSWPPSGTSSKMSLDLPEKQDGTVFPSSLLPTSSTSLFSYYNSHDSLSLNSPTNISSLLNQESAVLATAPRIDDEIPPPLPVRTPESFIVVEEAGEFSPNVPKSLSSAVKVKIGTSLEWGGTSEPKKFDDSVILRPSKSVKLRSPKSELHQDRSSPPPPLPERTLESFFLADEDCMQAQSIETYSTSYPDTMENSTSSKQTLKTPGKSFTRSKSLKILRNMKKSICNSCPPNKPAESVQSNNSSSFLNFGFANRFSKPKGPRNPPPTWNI", "experiment": "inhibition of lymphoid tyrosine phosphatase LYP – biochemical, pCAP fluorogenic substrate, fluorescence, set 3, SAR follow-up (AID 449727)", "assay_type": "functional"}, "[21]": {"biological_target": "T2, Tyrosine-protein phosphatase non-receptor type 7", "experiment": "redox-active compounds inhibiting HePTP phosphatase – biochemical, fluorescence, mechanism study (AID 2068)", "assay_type": "functional"}, "[22]": {"biological_target": "T5, Tyrosine-protein phosphatase non-receptor type 22", "experiment": "SAR LYP1 Fluorescent Assay using OMFP substrate for In Vitro dose response studies - Set 3. [Related pubchem assays (depositor defined):AID1779, AID1784, AID2140, AID2686]", "assay_type": "functional"}, "[23]": {"biological_target": "T5, Tyrosine-protein phosphatase non-receptor type 22", "experiment": "lymphoid phosphatase LYP inhibitors – biochemical, selectivity assay for STEP inhibitor project, dose response (AID 624241)", "assay_type": "functional"}, "[24]": {"biological_target": "T4, Dual specificity protein phosphatase 3", "experiment": "VHR phosphatase inhibition, dose response, selectivity assay for STEP inhibitor project, biochemical (AID 602374)", "assay_type": "functional", "details": "read-out: IC50_Mean"}}, "note": "Activity calls are given as the source filed them.", "data": [{"smiles": "COC(=O)c1ccc(C(=O)NC2CCCc3c2cnn3-c2cc(F)cc(F)c2)nc1", "note": "(centres undefined)", "values": [{"measurement": "CC50", "setting": "[1]", "value": "10.8 µM (active)"}, {"measurement": "EC50", "setting": "[2]", "value": "40 µM (active)"}, {"measurement": "IC50", "setting": "[3]", "value": "2.22 µM (active)"}, {"measurement": "EC50", "setting": "[4]", "value": "24.6 µM (active)"}, {"measurement": "CC50", "setting": "[5]", "value": "10.7 µM (active)"}, {"measurement": "EC50", "setting": "[6]", "value": "17.1 µM (active)"}, {"measurement": "EC50", "setting": "[7]", "value": "17.3 µM (active)"}]}, {"smiles": "CC(=O)N1C(=O)C(=C2C=C(C)OC(C)=C2)c2ccccc21", "values": [{"measurement": "EC50", "setting": "[8]", "value": "22 µM (inactive)"}, {"measurement": "EC50", "setting": "[9]", "value": "> 29.9 µM (not active)"}, {"measurement": "IC50", "setting": "[10]", "value": "> 2.06 µM (active)"}, {"measurement": "IC50", "setting": "[11]", "value": "2.13 µM (active)"}, {"measurement": "EC50", "setting": "[12]", "value": "> 99 µM (inactive)"}, {"measurement": "EC50", "setting": "[13]", "value": "> 99 µM (inactive)"}]}, {"smiles": "CCc1ccc(NC2=NC(=O)/C(=C/c3ccc(OCC(=O)O)cc3)S2)cc1", "values": [{"measurement": "IC50", "setting": "[14]", "value": "3.25 µM (active)"}, {"measurement": "IC50", "setting": "[15]", "value": "12.6 µM (active)"}, {"measurement": "IC50", "setting": "[16]", "value": "> 100 µM (inactive)"}, {"measurement": "IC50", "setting": "[17]", "value": "18.9 µM (active)"}, {"measurement": "IC50", "setting": "[18]", "value": "9.52 µM (active)"}, {"measurement": "IC50", "setting": "[19]", "value": "24.3 µM (inactive)"}, {"measurement": "IC50", "setting": "[20]", "value": "12.9 µM (active)"}, {"measurement": "IC50", "setting": "[21]", "value": "4.53 µM (active)"}, {"measurement": "IC50", "setting": "[22]", "value": "31.7 µM (active)"}, {"measurement": "IC50", "setting": "[23]", "value": "> 100 µM (inactive)"}, {"measurement": "IC50", "setting": "[24]", "value": "10.4 µM (active)"}]}]}
